Assay results reported in US11884631B1 (priority 2023, dated 2024).

Legend:
[1] = test system: Mycobacterium tuberculosis H37Rv; assay: Anti-tubercular activity (MIC), susceptible H37Rv strain; assay type: cell-based; conditions: ATCC 25177 / H37Rv, MIC = minimum drug concentration inhibiting growth with no color change in the well, read-out: MIC (μg/mL) Susceptible (H37Rv)

Row | Structure (SMILES) | MIC [1] | melting point
1 | Cc1ccc2c(ccc[n+]2CC(=O)c2cc(C(F)(F)F)cc(C(F)(F)F)c2)c1.[Br-] [Compound 3c, 1-(2-(3,5-Bis(trifluoromethyl)phenyl)-2-oxoethyl)-6-methylquinolin-1-ium bromide] | 16 µg/mL | 246 to 247 °C
2 | Cc1ccc2c(ccc[n+]2CC(=O)c2ccc(F)cc2)c1.[Br-] [Compound 3b, 1-(2-(4-Fluorophenyl)-2-oxoethyl)-6-methylquinolin-1-ium bromide] | 8 µg/mL | 206 to 207 °C
3 | Cc1ccc2c(ccc[n+]2CC(=O)c2ccc(Br)cc2)c1.[Br-] | – | 221 to 222 °C
4 | Cc1ccc2c(ccc[n+]2CC(=O)c2ccccc2[N+](=O)[O-])c1.[Br-] [Compound 3a, 6-Methyl-1-(2-(2-nitrophenyl)-2-oxoethyl)quinolin-1-ium bromide] | 32 µg/mL | 218 to 219 °C
